Assay [1] deals with T1, Protein arginine N-methyltransferase 3 (Homo sapiens, UniProt O60678).
Description: Inhibition of PRMT3 (unknown origin) using C-terminally biotinylated histone H4 as substrate in presence of [3H]S-adenosylmethionine by scintillation proximity assay
Assay [2] has as its target T1, Protein arginine N-methyltransferase 3. The assay can be described thus: Inhibition of FLAG-tagged wild type human PRMT3 expressed in HEK293 cells assessed as decrease in exogenous H4R3 dimethylation level using GFP-tagged histone H4 as substrate after 24 hrs by Western blot analysis. In kind it is cell-based. A general note: Immunoblotting shows a protein as a band on a membrane.

The target is the same in assay [3]. The assay can be described thus: Binding affinity to beta galactosidase fused human PRMT3 (211 to 531 residues) expressed in human A549 cells after 6 hrs by InCELL hunter assay. In kind it is cell-based.
Assay [4] shares this target. The assay can be described thus: Binding affinity to beta galactosidase fused human PRMT3 (211 to 531 residues) expressed in human HEK293 cells after 6 hrs by InCELL hunter assay. In kind it is cell-based.

Drawing on ChEMBL document CHEMBL4024780, “Discovery of Potent and Selective Allosteric Inhibitors of Protein Arginine Methyltransferase 3 (PRMT3)” (J Med Chem, 2018), this text covers IC50 and EC50 for eleven molecules.

Broadly, the IC50 is the point on the concentration scale where inhibition reaches its midpoint. As usually defined, the EC50 is the concentration giving half of the maximal effect.

SMILES strings stand for the structures. Bounds are passed on as bounds.

T1 sequence (O60678 whole entry): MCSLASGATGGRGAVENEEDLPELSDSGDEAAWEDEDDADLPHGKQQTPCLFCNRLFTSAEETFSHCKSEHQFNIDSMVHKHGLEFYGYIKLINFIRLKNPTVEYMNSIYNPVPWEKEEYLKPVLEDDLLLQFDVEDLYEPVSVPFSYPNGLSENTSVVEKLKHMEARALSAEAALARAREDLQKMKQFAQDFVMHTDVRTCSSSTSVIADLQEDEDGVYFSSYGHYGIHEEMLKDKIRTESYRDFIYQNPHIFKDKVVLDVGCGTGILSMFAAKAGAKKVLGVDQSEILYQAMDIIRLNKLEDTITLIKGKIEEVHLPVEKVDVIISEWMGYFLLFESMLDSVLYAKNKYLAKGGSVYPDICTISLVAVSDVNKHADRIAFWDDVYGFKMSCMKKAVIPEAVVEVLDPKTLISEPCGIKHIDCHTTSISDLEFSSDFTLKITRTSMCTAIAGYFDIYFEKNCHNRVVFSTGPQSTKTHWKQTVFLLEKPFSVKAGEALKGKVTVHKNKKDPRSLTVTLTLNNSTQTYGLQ

In assay [1], `O=C(NCC(=O)N1C2CCCC1CC2)Nc1ccc2cnccc2c1` returned an IC50 of 22 nM.

Regarding `CON(C)C(=O)CNC(=O)Nc1ccc2cnccc2c1`, in assay [1], the IC50 turned out to be 476 nM.

`O=C(NCCC1CC1)Nc1ccc2cnccc2c1` showed an IC50 in assay [1] of over 8000 nM.

Regarding `O=C(CNC(=O)Nc1ccc2cnccc2c1)NC1CCCCC1`, inhibition in assay [1] was half-maximal at 477 nM (IC50).

Molecule `O=C(NCC(=O)N1C2CCC1CC2)Nc1ccc2cnccc2c1` had an IC50 in assay [1] of 46 nM.

Take `O=C(NCCc1ccccc1)Nc1ccc2cnccc2c1`: the midpoint of inhibition in assay [1], the IC50, lay at 833 nM.

Take `O=C(NCC(=O)N1CCCCC1)Nc1ccc2cnccc2c1`: in assay [1], the 50% inhibitory concentration (IC50) turned out to be 84 nM.

`O=C(NCC(=O)N1CC(F)(F)C(F)(F)C1)Nc1ccc2cnccc2c1`: the IC50 in assay [2] was determined as 240 nM; in assay [1], 24 nM. Moreover, the figures for the concentration for a half-maximal effect (EC50) in assay [3] and in assay [4] were 2700 nM and 3100 nM, respectively.

`O=C(NCC(=O)N1CCCC1)Nc1cc2ccncc2cc1F`: the IC50 in assay [1] turned out to be 19 nM. Further, the EC50 amounted to 1600 nM in assay [3] and 2700 nM in assay [4].

In turn, `O=C(CNC(=O)Nc1ccc2cnccc2c1)NC1CC1` gave an IC50 in assay [1] of 158 nM.

For `CN1CCN(C(=O)CNC(=O)Nc2ccc3cnccc3c2)CC1`, the IC50 in assay [1] was over 1900 nM.
